Source: patent US20240238274A1, “INHIBITORS OF UBIQUITIN SPECIFIC PEPTIDASE 22 (USP22) AND USES THEREOF FOR TREATING DISEASE AND DISORDERS” (Northwestern University, priority 2021, published 2024)

Columns and labels:
naïve mice = test: In vivo toxicity and Treg phenotype in naïve mice
Experimental: D, Graphical representation of Foxp3 MFI upon Usp22i-S02 administration (n=5). E, Tumor growth curve of LLC1 cells subcutaneously injected in the flank of WT mice with or without the addition of 20 mg/kg/time of the Usp22 inhibitor starting at day 15, in 100 μL of oil (n=4). F-G, Representative flow cytometry plot and graphical representation of % infiltration of CD4+ and CD8+ T cells within the tumor (n=4). […] I, MFI of itTreg suppressive markers (n=3-4). […] B, D-E, G, H-I Two-way ANOVA with multiple comparisons between rows was performed to determine statistical significance. J, Unpaired two tailed T test was performed to determine significance. All data are presented as mean±stdev. NS, not significant. *P<0.05, **P<0.01, ***P<0.001, ****P<0.0001.
A, Body weight of Usp22i-S02 treated mice verses DMSO treated controls over the course of treatment (n=4). […] B, Percent of cell populations in naïve mice treated with Usp22i-S02 relative to DMSO control (n=3-4). […] E, Percent Annexin+PI+ T cells gates on CD45+ cells in naïve mice treated with Usp22i-S02 relative to DMSO control (n=4). F-H, Organ toxicity panel (VetScan VS2 Comprehensive Diagnostic Rotor lot 1061AA2) of naïve mice treated with Usp22i-S02 relative to DMSO control (n=2-3). […] J, Weights of resected tumors at day 16 from I (n=10). K-L, Representative flow plot and graphical representation of infiltrating T cells gated on CD45+ cells (n=5). […] Q, Percent of intratumoral Treg cells from mice treated with Usp22i-S02 verses DMSO control, gated on CD4+Foxp3+ from mice (n=5). A-E, I and L, Two-way ANOVA with Sidaks's multiple comparisons between rows relative to control was performed to determine statistical significance. F-H, J, and M-Q, Two-tailed unpaired t-test was performed to determine statistical significance. All data are presented as mean±stdev. NS, not significant. *P<0.05, **P<0.01, ***P<0.001, ****P<0.0001.
An important aspect of a potential immunotherapeutic is its antitumor functionality paired with low immune toxicity. To determine the toxicity of Usp22i-S02 in vivo, we first determined its effects in naïve mice.

Foxp3 in iTreg cells = test: In vitro dose response and mechanism study in WT, Usp22-null and Usp21-null Treg cells; assay type: cell-based, murine
Experimental: (§1) FIG. 15: Usp22i-S02 halts Usp22-mediated Foxp3 deubiquitination. A, Graphical representation of Foxp3 MFI change in WT versus 22KO iTreg cells treated with various doses of Usp22i-S02 (n=3). B, Representative histogram of Foxp3 MFI level in iTreg cells as Usp22 inhibitor concentration increases from 0-20 μg/mL. C, Cell survival of iTreg cells treated with various doses of Usp22i-S02 (n=3). D, FOXP3 and USP22 protein level in WT and 22KO mice treated with 10 μg/mL Usp22i-S02. E-F, Graphical and representative data of Foxp3 MFI of human Treg cells treated with various doses of Usp22i-S02 (n=3). G, Graphical representation of Foxp3 MFI in WT, Usp21-null, and Usp22-null Treg cells treated with Usp22i-S02 at 10 μg/mL (n=3). H, FOXP3 and USP22 protein degradation of cycloheximide (10 μg/mL) treated iTreg cells with or without the addition of 10 μg/mL of Usp22i-S02. I-J, Endogenous DUB assay IP in iTreg cells of USP22 with FOXP3 under increasing concentrations of Usp22i-S02. K, Foxp3 mRNA level in iTreg cells as Usp22 inhibitor concentration increases from 0-20 μg/mL (n=3). L, FOXP3 and USP22 level in WT iTreg cells with or without 20 μg/mL Usp22 inhibitor treated with 20 μM MG132. M, Graphical representation of the percentage of decrease of Foxp3 MFI in either WT or Usp22-null nTreg cells placed in low glucose conditions with or without the addition of 10 μg/mL of Usp22i-S02 (n=7-8). N, Graphical representation of the percentage of decrease of Foxp3 MFI in WT nTreg cells placed in hypoxic or low amino acid conditions with or without the addition of 10 μg/mL of Usp22i-S02 (n=3-5). G, Two-tailed unpaired t-test comparing within groups was performed to determine statistical significance. K, One-way ANOVA with Dunnet's multiple comparisons between rows relative to control was performed to determine statistical significance. M-N, Two-way ANOVA with Sidak's multiple comparisons between rows was performed to determine statistical significance. All data are presented as mean±stdev. NS, not significant. *P<0.05, **P<0.01, ***P<0.001, ****P<0.0001.
After initial screening, we ran an in vitro dose response study on compound S02, now dubbed Usp22i-S02, in both WT and Usp22-null iTreg cells (FIG. 15A-C).
All nTreg and iTreg cells were plated as described above DMOG (Sigma Catalog #D3695) was administered to the cells in relevant experiments at 1 mM for 24 hours. Oligomycin (Sigma Catalog #75351) was administered at 1 μM to the media of the cells in relevant experiments for 24 hours. Torin 1 (Millipore Catalog #475991) was administered to the relevant cells at 250 nM for 24 hours. FOXP3 protein level was assessed via flow cytometry following […] of treatment of inhibitors described above. In vitro administration of Usp22i-S02 was at 10 ug/mL.

[1] = system: Foxp3 in human Treg cells; test: Foxp3 MFI of human Treg cells treated with Usp22i-S02; assay type: cell-based; details: low doses
Experimental: as §1, with “N, Graphical representation of the percentage of decrease of Foxp3 MFI in WT nTreg cells placed in hypoxic or low amino acid conditions with or without the addition of 10 μg/mL of Usp22i-S02 (n=3-5). G, Two-tailed unpaired t-test comparing within groups was performed to determine statistical significance. K, One-way ANOVA with Dunnet's multiple comparisons between rows relative to control was performed to determine statistical significance. M-N, Two-way ANOVA with Sidak's multiple comparisons between rows was performed to determine statistical significance. All data are presented as mean±stdev. NS, not significant. *P<0.05, **P<0.01, ***P<0.001, ****P<0.0001.” left out

N#Cc1c2c(c(Nc3ccccc3)n3c1nc1ccccc13)CCCC2 [Chemical S02, 11-anilino-7,8,9,10-tetrahydro-benzimidazo [1,2-b] isoquinoline-6-carbonitrile]
FOXP3 MFI in Treg cells from the spleen and lymph nodes (naïve mice; WT mice, 20 mg/kg in vivo): significant drop in FOXP3 MFI | Treg cell death (naïve mice; naïve mice vs DMSO control): significantly increased | organ toxicity (comprehensive tissue panel) (naïve mice; naïve mice vs DMSO-treated control): no organ toxicity differences | weights, B cell and Teff cell percentages and proliferation, Teff cell activation (naïve mice; naïve mice vs DMSO-treated control, 10 mg/kg twice a day for 3 days): little alteration | viability of iTreg cells (Foxp3 in iTreg cells; 10 μg/mL): little effect on viability | effect on Foxp3 in iTreg cells lacking Usp21 (Foxp3 in iTreg cells; Usp21-null iTreg cells, 10 μg/mL): full effect | Foxp3 MFI and protein level (Foxp3 in iTreg cells; WT iTreg cells, 10 μg/mL): decreases in Foxp3 MFI and protein level comparable to Usp22-null iTreg cells | Foxp3 stability under glucose starvation (Foxp3 in iTreg cells; WT nTreg cells, low glucose, 10 μg/mL): significantly diminished Foxp3 stability | FOXP3 degradation (Foxp3 in iTreg cells; cycloheximide (CHX) treated iTreg cells): enhanced FOXP3 degradation | Foxp3 transcription (Foxp3 in iTreg cells; iTreg cells, Foxp3 mRNA, 0-20 μg/mL): decreased Foxp3 transcription | FOXP3 ubiquitination (Foxp3 in iTreg cells; iTreg cells, endogenous DUB assay IP): increased FOXP3 ubiquitination | FOXP3 levels in Treg cells lacking Usp22 (Foxp3 in iTreg cells; murine Treg cells lacking Usp22, in vivo and in vitro): minimal effect on FOXP3 levels | Foxp3 MFI [1]: significantly decreased Foxp3 MFI | cell viability [1]: little effect to cell viability
